Data from patent publication US5654469A, “Acetylenes disubstituted with a 5 substituted tetrahydronaphthyl group and with an aryl or heteroaryl groups having retinoid-like biological activity” (Allergan, priority 1996, dated 1997).

Tested on: ornithine decarboxylase (ODC)
Experiment: ODC assay: inhibition of TPA induction of ornithine decarboxylase (retinoid-like activity)
Assay type: biochemical
Conditions: concentration of the test compound which causes 80% inhibition in the ODC assay (TPA-induced ODC)
Source text: The retinoic acid-like activity of these compounds is confirmed through the classic measure of retinoic acid activity involving the effects of retinoic acid on ornithine decarboxylase. The original work on the correlation between retinoic acid and decrease in cell proliferation was done by Verma & Boutwell, Cancer Research, 1977, 37,2196-2201. That reference discloses that ornithine decarboxylase (ODC) activity increased precedent to polyamine biosynthesis. It has been established elsewhere that increases in polyamine synthesis can be correlated or associated with cellular proliferation. Thus, if ODC activity could be inhibited, cell hyperproliferation could be modulated. Although all cases for ODC activity increases are unknown, it is known that 12-0-tetradecanoylphorbol-13-acetate (TPA) induces ODC activity. Retinoic acid inhibits this induction of ODC activity by TPA. […] Activity of exemplary compounds of the present invention in the above-described ODC assay is disclosed in Table 2 which provides the IC80 concentration for the respective exemplary compound. ("IC80 " is that concentration of the test compound which causes 80% inhibition in the ODC assay. By analogy, "IC60, for example, is that concentration of the test compound which causes 60% inhibition in the ODC assay.)

SMILES	IC80 conc [nmols]
CCOC(=O)c1ccc(C#Cc2ccc3c(c2)C(C)(C)CC[C@@H]3O[C@@H]2CCCCO2)cc1 (relative stereo) [Compound 13, Ethyl 4-[[5,6,7,8-tetrahydro-5(SR)-(2'(RS)-tetrahydropyranyloxy)-8,8-dimethylnaphth-2-yl]ethynyl]benzoate]	7.29
CCOC(=O)c1ccc(C#Cc2ccc3c(c2)[C@H](O[C@H]2CCCCO2)CCC3(C)C)cc1 (relative stereo) [Compound 16, Ethyl 4-[[5,6,7,8-tetrahydro-5(RS)-(2'(SR)-tetrahydropyranyloxy)-8,8-dimethylnaphth-3-yl]ethynyl]benzoate]	0.60
CCOC(=O)c1ccc(C#Cc2ccc3c(c2)[C@H](O[C@H]2CCCCO2)CCC3(C)C)nc1 (relative stereo) [Compound 18]	2.20
CC1(C)CC[C@H](O[C@@H]2CCCCO2)c2ccc(C#Cc3ccc(C(=O)O)cc3)cc21 (relative stereo) [Compound 32, 4-[[5,6,7,8-tetrahydro-5(SR)-(2'(RS)-tetrahydropyranyloxy)-8,8-dimethylnaphth-2-yl]ethynyl]benzoic acid]	4.20
CC1(C)CC[C@@H](O[C@H]2CCCCO2)c2cc(C#Cc3ccc(C(=O)O)cc3)ccc21 (relative stereo) [Compound 34, 4-[[5,6,7,8-tetrahydro-5(RS)-(2'(SR)-tetrahydropyranyloxy)-8,8-dimethylnaphth-3-yl]ethynyl]benzoic acid]	2.30
CC1(C)CC[C@H](O[C@H]2CCCCO2)c2ccc(C#Cc3ccc(C(=O)O)cc3)cc21 (relative stereo) [Compound 35]	< 3
CCOC(=O)c1ccc(C#Cc2ccc3c(c2)C(C)(C)CCC3O)cc1 (stereo not drawn) [Compound 9, Ethyl 4-[(5,6,7,8-tetrahydro-5-hydroxy-8,8-dimethyl-naphth-2-yl)ethynyl]benzoate]	0.91
CC1(C)CCC(O)c2cc(C#Cc3ccc(C(=O)O)cc3)ccc21 (stereo not drawn) [Compound 41, 4-[(5,6,7,8-tetrahydro-5-hydroxy-8,8-dimethylnaphth-3-yl)ethynyl]benzoic acid]	9.30
CC1(C)CCC(O)c2ccc(C#Cc3ccc(C(=O)O)cc3)cc21 (stereo not drawn) [Compound 42, 4-[(5,6,7,8-tetrahydro-5-hydroxy-8,8-dimethylnaphth-2-yl)ethynyl]benzoic acid]	0.66
CCOC(=O)c1ccc(C#Cc2ccc3c(c2)C(C)(C)CCC3(C#N)O[Si](C)(C)C)cc1 (stereo not drawn) [Compound 107, Ethyl 4-[(5-cyano-5,6,7,8-tetrahydro-8,8-dimethyl-5-trimethylsiloxynaphth-2-yl)ethynyl]benzoate]	1.43
CCOC(=O)c1ccc(C#Cc2ccc3c(c2)C(C)(C)CCC3O[Si](C)(C)C)cc1 (stereo not drawn) [Compound 111, Ethyl 4-[(5,6,7,8-tetrahydro-8,8-dimethyl-5-trimethylsiloxynaphth-2-yl)ethynyl]benzoate]	3.40
CCOC(=O)CC1(O)CCC(C)(C)c2cc(C#Cc3ccc(C(=O)OCC[Si](C)(C)C)cc3)ccc21 (stereo not drawn) [Compound 117, Trimethylsilylethyl 4-[(5,6,7,8-tetrahydro-5-hydroxy-8,8-dimethyl-5-carboethoxymethylnaphth-2-yl)ethynyl]benzoate]	8.60
CCOC(=O)CC1(O)CCC(C)(C)c2ccc(C#Cc3ccc(C(=O)OCC)cc3)cc21 (stereo not drawn) [Compound 119, Ethyl 4-[(5-hydroxy-8,8-dimethyl-5-carhoethoxymethyl-5,6,7,8-tetrahydronapth-3-yl)ethynyl]benzoate]	1.0
CCOC(=O)c1ccc(C#Cc2ccc3c(c2)C(C)(C)CCC3SC(C)=O)cc1 (stereo not drawn) [Compound 143, Ethyl 4-[(5,6,7,8-tetrahydro-8,8-dimethyl-5-thioacetylnaphth-2-yl)ethynyl]benzoate]	0.15

Second part, the molecule after the results:

IC80 conc [nmols]	SMILES
2.80	CCOC(=O)c1ccc(C#Cc2ccc3c(c2)C(C)(C)CC[C@@H]3O[C@H]2CCCCO2)cc1 (relative stereo) [Compound 14]
0.09	CCOC(=O)c1ccc(C#Cc2ccc3c(c2)[C@H](O[C@@H]2CCCCO2)CCC3(C)C)cc1 (relative stereo) [Compound 15, Ethyl 4-[[5,6,7,8-tetrahydro-5 (RS)-(2'(RS)-tetrahydropyranyloxy)-8,8-dimethylnaphth-3-yl]ethynyl]benzoate]
0.35	CCOC(=O)c1ccc(C#Cc2ccc3c(c2)[C@H](O[C@@H]2CCCCO2)CCC3(C)C)nc1 (relative stereo) [Compound 17, Ethyl 6-[[5,6,7,8-tetrahydro-5(RS)-(2'(RS)-tetrahydropyranyloxy)-8,8-dimethylnaphth-3-yl]ethynyl]nicotinate]
0.08	CC1(C)CC[C@@H](O[C@@H]2CCCCO2)c2cc(C#Cc3ccc(C(=O)O)cc3)ccc21 (relative stereo) [Compound 33]
18.70	CC1(C)CC[C@@H](O[C@@H]2CCCCO2)c2cc(C#Cc3ccc(C(=O)O)cn3)ccc21 (relative stereo) [Compound 36]
3.83	CCOC(=O)c1ccc(C#Cc2ccc3c(c2)C(OC2CCCCC2)CCC3(C)C)cc1 (stereo not drawn) [Compound 6, Ethyl 4-[(5-cyclohexyloxy-5,6,7,8-tetrahydro-8,8-di-methyl-naphth-3-yl)ethynyl]benzoate]
3.18	CCOC(=O)c1ccc(C#Cc2ccc3c(c2)C(O)CCC3(C)C)cc1 (stereo not drawn) [Compound 10, Ethyl 4-[(5,6,7,8-tetrahydro-5-hydroxy-8,8-dimethylnaphth-3-yl)ethynyl]benzoate]
0.40	CCOC(=O)c1ccc(C#Cc2ccc3c(c2)C(OCOC)CCC3(C)C)cc1 (stereo not drawn) [Compound 12]
0.81	COCOC1CCC(C)(C)c2ccc(C#Cc3ccc(C(=O)O)cc3)cc21 (stereo not drawn) [Compound 43]
1.33	CCOC(=O)CC1(O)CCC(C)(C)c2cc(C#Cc3ccc(C(=O)OCC)cc3)ccc21 (stereo not drawn) [Compound 113, Ethyl 4-[(5,6,7,8-tetrahydro-5-hydroxy-8,8-dimethyl-5-carboethoxymethylnaphth-2-yl)ethynyl]benzoate]
